Measured values reported in EP3838286B1, “ANTIMICROBIAL PEPTIDE FROM POLISTES GALLICUS VENOM AND ITS ANALOGS” (Latoxan, priority 2019, dated 2021).
Values after ≈ are worked out from the molar mass of the structure shown. Where two headings read alike, the source gives them in different places. Square brackets hold non-standard residues; d marks the D form. Peptide text beside a SMILES is read from it.

Tests used:
[1] = Cytotoxicity assay (resazurin); format: cell-based; settings: human
Description: Normal human cells used were BEAS-2B (ATCC CRL-9609), IMR-90 (ATCC CCL-186) and Human Umbilical Vein Endothelial Cells (HUVEC) (from Sigma-Aldrich) corresponding respectively to human normal lung epithelial, normal lung fibroblast cells and human normal endothelial cells. All cells except HUVEC cells were cultured in Dulbecco's modified essential medium (DMEM) supplemented with 10% fetal calf serum (FCS), 1% L-glutamine and 1% antibiotics (all from Invitrogen). HUVEC cells were cultured in specific endothelial media (from Sigma Aldrich). Cells were seeded onto […] maintained in a 5% CO2 incubator at 37 °C. Cells grown on 25 cm^2 flasks were detached using trypsin-EDTA solution (from Thermofisher), counted using Mallassez counting chamber and seeded into 96-well cell culture plates (Greiner bio-one) at approximately 10,000 cells per well. The cells were left to grow for 48-72 h at 37 °C in a 5% CO2 incubator until they reached confluence. Plates were then aspirated and increasing concentrations of peptides diluted in culture media were added to the cells for 48 h at 37 °C in a 5% CO2 incubator. At the end of the incubation, wells were emptied and cell viability was evaluated using Resazurin based in vitro toxicity assay kit (from Sigma-Aldrich) following manufacturer's instructions. Briefly, Resazurin stock solution was diluted 1:10 in sterile PBS containing calcium and magnesium (PBS, pH 7.4) and empty wells were filled with 100 µL of the diluted solution. After 4 h incubation at 37 °C, fluorescence intensity was measured using microplate reader (Synergy Mx, Biotek) with an excitation wavelength of 530 nm and an emission wavelength of 590 nm. The fluorescence values were normalized by the controls (buffer treated cells) and expressed as percent viability. The IC50 values of peptides on cell viability (i.e. the concentration of derivative causing a reduction of 50% of cell viability) were determined using GraphPad® Prism 7 software. t-Test and two way ANOVA analyses were used to address the significant differences between mean values with significance set at p < 0.05.

[2] = tested on: B. subtilis (Nisin-resistant)
MiaPaCa-2 = experiment: Antitumor / antiproliferative activity (resazurin); format: cell-based, human; settings: pancreas cancer cells; 5,000 cells/well; 48 h; read-out: IC50 antiproliferative effect MiaPaCa-2
Description: (§1) Human cancer cell lines (Mia PaCa-2 (CRL-1420), PC-3 (CRL-1435), MDA-MB-231 (HTB-26)) and normal lung fibrobasts (BEAS-2B (ATCC CRL-9609) and IMR-90 (ATCC CCL-186)) were obtained from American Type Culture Collection (ATCC). HUVEC cells were obtained from Sigma Aldrich and were grown in defined all-in-one ready to use endothelial cell growth medium (Sigma Aldrich). Other cells were cultured in Dulbecco's modified Eagle's medium (DMEM, Gibco Life Technologies) supplemented with 10% heat-inactivated fetal calf serum (FCS, Lonza) at 37 °C in an incubator containing 5% CO2. Cells were sub-cultured in new media every 3-4 days. Antiproliferative / antitumor effects of the peptides were measured as previously described (Borie et al., Eur J Med Chem. 2018;148:306-313). Briefly, cells were detached from growing flask using trypsin, cells were counted and seeded in 96 well-plates in the growth media at an initial cell density of 5000 cells/well. Cells were left for 4 h to attach to the wells. Cells were then treated with increasing concentrations of peptides diluted in culture media. After 48 h incubation at 37 °C in a 5% CO2 incubator, wells were emptied and cell number was evaluated using Resazurin based in vitro toxicity assay kit (from Sigma-Aldrich) following manufacturer's instructions. Briefly, Resazurin stock solution was diluted 1:10 in sterile PBS containing calcium and magnesium (PBS, pH 7.4) and empty wells were filled with 100 µL of the diluted solution. After 4 h incubation at 37 °C, fluorescence intensity was measured using microplate reader (Synergy Mx, Biotek) with an excitation wavelength of 530 nm and an emission wavelength of 590 nm. The fluorescence values were normalized by the controls (buffer treated cells) and expressed as per-cent viability. The IC50 values of peptides on cell division / proliferation (i.e. the concentration of derivative causing a reduction of 50% of cell division) were determined using GraphPad ® Prism 7 software. t-Test and two way ANOVA analyses were used to address the significant differences between mean values with significance set at p < 0.05.

PC-3 = experiment: Antitumor / antiproliferative activity (resazurin); format: cell-based, human; settings: prostate cancer cells; 5,000 cells/well; 48 h; read-out: IC50 antiproliferative effect PC-3
Description: as §1

MDA-MB-231 = experiment: Antitumor / antiproliferative activity (resazurin); format: cell-based, human; settings: breast cancer cells; 5,000 cells/well; 48 h; read-out: IC50 antiproliferative effect MDA-MB-231
Description: as §1

M. smegmatis = settings: 72 h
Pseudomonas aeruginosa = experiment: Stability of the peptides to proteases and human serum (MIC of digested peptides); format: in vitro ADME; settings: for MIC (µM) Serum4h: after 4 h at 37°C in human serum; for MIC (µM) Serum4h / MIC (µM) Chymotrypsin / MIC (µM) Pepsin / MIC (µM) Trypsin / MIC (µM) Serum24h / MIC (µM) Control: against Pseudomonas aeruginosa; for MIC (µM) Chymotrypsin: after 4 h at 37°C with chymotrypsin; for MIC (µM) Chymotrypsin / MIC (µM) Trypsin: pH 7; for MIC (µM) Pepsin: after 4 h at 37°C with pepsin, pH2; for MIC (µM) Trypsin: after 4 h at 37°C with trypsin; for MIC (µM) Serum24h: after 24 h at 37°C in human serum; for stability to proteases and human serum: pepsin, trypsin, chymotrypsin; for MIC (µM) Control: peptide incubated in PBS, not treated with proteases
Description: In order to evaluate the stability of the peptides to condition they will face in vivo, their resistance to proteases and human serum was evaluated (Oyama et al., 2017 Biofilms Microbiomes, Dec 1;3:33). Briefly, one volume of peptides (at 1 mM) was diluted in one volume of proteases (Pepsin, Trypsin, Chymotrypsin, Papain all from Sigma Aldrich and diluted at 2 mg/ml in HCl 10 mM pH2 for Pepsin, PBS pH 7 for Trypsin and Chymotrysin and PBS pH 6 for Papain) or human serum (Sigma Aldrich H4522). Peptides incubated in the same conditions in PBS were used as controls. After 4 h (for proteases) and 4 or 24 h (for human serum) of incubation at 37°C, PMSF was added to the reaction mixture at a final concentration of 100 µM to stop the digestion. MIC of the digested peptides were then determined as explained above.

[3] = BEAS-2B normal lung epithelial cells, normal lung epithelium, read-out: Cytotoxicity IC50 (µM) BEAS
[4] = HUVEC (human umbilical vein endothelial cells), normal endothelium, read-out: Cytotoxicity IC50 (µM) HUVEC
[5] = IMR-90 normal lung fibroblast cells, read-out: Cytotoxicity IC50 (µM) IMR90

CC[C@@H](C)[C@@H](N)C(=O)N[C@H](CC(C)C)C(=O)N[C@H](CCCCN)C(=O)N[C@H](C)C(=O)N[C@@H](C(=O)N[C@H](CCCCN)C(=O)N[C@H](CCCCN)C(=O)N[C@H](CC(C)C)C(=O)N[C@H](CC(C)C)C(=O)N[C@H](CCCCN)C(N)=O)[C@H](C)CC [(i1k10*) enantio, ilkaikkllk] (H-[dI][dL][dK][dA][dI][dK][dK][dL][dL][dK]-NH2)
CC50 at 48 h [1, 3]: 726 µM | CC50 at 48 h [1, 4]: 683 µM | CC50 at 48 h [1, 5]: 365 µM | MBC (µM) S. flexneri (S. flexneri): 12.5 µM (≈ 14.6 µg/mL) | MIC (µM) S. flexneri (S. flexneri): 12.5 µM (≈ 14.6 µg/mL) | MBC (µM) V. alginolyticus (V. alginolyticus): 1.5 µM (≈ 1.75 µg/mL) | MIC (µM) V. alginolyticus (V. alginolyticus): 0.78 to 1.56 µM | MBC (µM) P. aeruginosa (P. aeruginosa): 3.12 µM (≈ 3.64 µg/mL) | MIC (µM) P. aeruginosa (P. aeruginosa): 3.125 µM (≈ 3.65 µg/mL) | MIC PA (P. aeruginosa): 3.125 µM (≈ 3.65 µg/mL) | MBC (µM) P. aeruginosa 01 (P. aeruginosa 01): 50 µM (≈ 58.3 µg/mL) | MIC (µM) P. aeruginosa 01 (P. aeruginosa 01): 12.5 µM (≈ 14.6 µg/mL) | MBC (µM) B. subtilis (Nisin-resistant) [2]: 12.5 µM (≈ 14.6 µg/mL) | MIC (µM) B. subtilis (Nisin-resistant) [2]: 12.5 µM (≈ 14.6 µg/mL) | MBC (µM) L. lactis (L. lactis): 3.12 µM (≈ 3.64 µg/mL) | MIC (µM) L. lactis (L. lactis): 1.5 µM (≈ 1.75 µg/mL) | IC50 (MiaPaCa-2): 13.4 µM | IC50 (PC-3): 39.3 µM | IC50 (MDA-MB-231): 61.7 µM | MIC (µM) M. smegmatis (M. smegmatis): 6.25 µM (≈ 7.29 µg/mL) | MIC (µM) Serum4h (Pseudomonas aeruginosa): 1.5 µM | MIC (µM) Chymotrypsin (Pseudomonas aeruginosa): 1.5 µM | MIC (µM) Pepsin (Pseudomonas aeruginosa): 1.5 µM | MIC (µM) Trypsin (Pseudomonas aeruginosa): 1.5 µM | MIC (µM) Serum24h (Pseudomonas aeruginosa): 0.75 µM | stability to proteases and human serum (Pseudomonas aeruginosa): not affected | MIC (µM) Control (Pseudomonas aeruginosa): 1.5 µM | MBC (µM) A. gandavensis (A. gandavensis): 1.5 µM (≈ 1.75 µg/mL) | MIC (µM) A. gandavensis (A. gandavensis): 1.5 µM (≈ 1.75 µg/mL) | MBC (µM) E. coli EHEC K88 (E. coli EHEC K88): 50 µM (≈ 58.3 µg/mL) | MIC (µM) E. coli EHEC K88 (E. coli EHEC K88): 50 µM (≈ 58.3 µg/mL) | MBC (µM) C. rodentium (C. rodentium): 50 µM (≈ 58.3 µg/mL) | MIC (µM) C. rodentium (C. rodentium): 50 µM (≈ 58.3 µg/mL) | MBC (µM) H. pylori (H. pylori): 50 µM (≈ 58.3 µg/mL) | MIC (µM) H. pylori (H. pylori): 50 µM (≈ 58.3 µg/mL) | MBC (µM) S. enterica (S. enterica): 25 µM (≈ 29.2 µg/mL) | MIC (µM) S. enterica (S. enterica): 50 µM (≈ 58.3 µg/mL) | MBC (µM) P. aeruginosa FQR (P. aeruginosa FQR): 100 µM (≈ 117 µg/mL) | MIC (µM) P. aeruginosa FQR (P. aeruginosa FQR): 12.5 to 25 µM | MBC (µM) C. farmeri (C. farmeri): 50 µM (≈ 58.3 µg/mL) | MIC (µM) C. farmeri (C. farmeri): 12.5 µM (≈ 14.6 µg/mL)

CC[C@@H](C)[C@@H](N)C(=O)N[C@H](CC(C)C)C(=O)N[C@H](CCCCN)C(=O)N[C@H](C)C(=O)N[C@@H](C(=O)N[C@H](CCCCN)C(=O)N[C@H](CCCCN)C(=O)N[C@H](CC(C)C)C(=O)N[C@H](CC(C)C)C(=O)N[C@H](CCCCN)C(=O)N[C@H](CC(N)=O)C(N)=O)[C@H](C)CC [LTX-D (gallicune-1), ilkaikkllkn] (H-[dI][dL][dK][dA][dI][dK][dK][dL][dL][dK][dN]-NH2)
CC50 at 48 h [1, 3]: 843 µM | CC50 at 48 h [1, 4]: 869 µM | CC50 at 48 h [1, 5]: 653 µM | MBC (µM) S. flexneri (S. flexneri): 12.5 µM (≈ 16 µg/mL) | MIC (µM) S. flexneri (S. flexneri): 12.5 µM (≈ 16 µg/mL) | MBC (µM) V. alginolyticus (V. alginolyticus): 0.78 µM (≈ 0.999 µg/mL) | MIC (µM) V. alginolyticus (V. alginolyticus): 0.78 µM (≈ 0.999 µg/mL) | MBC (µM) P. aeruginosa (P. aeruginosa): 1.5 µM (≈ 1.92 µg/mL) | MIC (µM) P. aeruginosa (P. aeruginosa): 1.5 µM (≈ 1.92 µg/mL) | MIC PA (P. aeruginosa): 1.5 µM (≈ 1.92 µg/mL) | MBC (µM) P. aeruginosa 01 (P. aeruginosa 01): 25 µM (≈ 32 µg/mL) | MIC (µM) P. aeruginosa 01 (P. aeruginosa 01): 6.25 µM (≈ 8 µg/mL) | MBC (µM) B. subtilis (Nisin-resistant) [2]: 6.25 µM (≈ 8 µg/mL) | MIC (µM) B. subtilis (Nisin-resistant) [2]: 6.25 µM (≈ 8 µg/mL) | MBC (µM) L. lactis (L. lactis): 1.5 µM (≈ 1.92 µg/mL) | MIC (µM) L. lactis (L. lactis): 1.5 µM (≈ 1.92 µg/mL) | MIC (µM) E. coli (E. coli): 6.25 µM (≈ 8 µg/mL) | IC50 (MiaPaCa-2): 6.51 µM | IC50 (PC-3): 33.7 µM | IC50 (MDA-MB-231): 56.2 µM | MIC (µM) M. smegmatis (M. smegmatis): 25 µM (≈ 32 µg/mL) | MIC (µM) Serum4h (Pseudomonas aeruginosa): 25 µM | MIC (µM) Chymotrypsin (Pseudomonas aeruginosa): 25 µM | MIC (µM) Pepsin (Pseudomonas aeruginosa): 25 µM | MIC (µM) Trypsin (Pseudomonas aeruginosa): 25 µM | MIC (µM) Serum24h (Pseudomonas aeruginosa): 12.5 µM | stability to proteases and human serum (Pseudomonas aeruginosa): not affected | MIC (µM) Control (Pseudomonas aeruginosa): 25 µM | MBC (µM) A. gandavensis (A. gandavensis): 1.5 µM (≈ 1.92 µg/mL) | MIC (µM) A. gandavensis (A. gandavensis): 1.5 µM (≈ 1.92 µg/mL) | MBC (µM) E. coli EHEC K88 (E. coli EHEC K88): 50 µM (≈ 64 µg/mL) | MIC (µM) E. coli EHEC K88 (E. coli EHEC K88): 50 µM (≈ 64 µg/mL) | MBC (µM) C. rodentium (C. rodentium): 25 µM (≈ 32 µg/mL) | MIC (µM) C. rodentium (C. rodentium): 12.5 µM (≈ 16 µg/mL) | MBC (µM) H. pylori (H. pylori): 50 µM (≈ 64 µg/mL) | MIC (µM) H. pylori (H. pylori): 50 µM (≈ 64 µg/mL) | MBC (µM) S. enterica (S. enterica): 25 µM (≈ 32 µg/mL) | MIC (µM) S. enterica (S. enterica): 25 µM (≈ 32 µg/mL) | MBC (µM) P. aeruginosa FQR (P. aeruginosa FQR): 12.5 µM (≈ 16 µg/mL) | MIC (µM) P. aeruginosa FQR (P. aeruginosa FQR): 6.25 to 12.5 µM | MBC (µM) C. farmeri (C. farmeri): 6.25 µM (≈ 8 µg/mL) | MIC (µM) C. farmeri (C. farmeri): 6.25 µM (≈ 8 µg/mL)
